Experimental data: PubChem BioAssay (NCI)
Where “and” joins values, the source holds several entries; their conditions need not be identical. Equal entries are not always repeated.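 All cell lines were grown in 96-well plates and treated with compound for 48 hours. GI50 is the concentration that inhibits growth by half. TGI: total growth inhibition.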

Legend:
Experiment in all cases: NCI-60 cell line screen, 48 h
DU-145 prostate = test system: DU-145 prostate
EKVX NSCLC = test system: EKVX NSCLC
HCT-15 colon = test system: HCT-15 colon
HOP-92 NSCLC = test system: HOP-92 NSCLC
M14 melanoma = test system: M14 melanoma
OVCAR-4 ovarian = test system: OVCAR-4 ovarian
OVCAR-5 ovarian = test system: OVCAR-5 ovarian
PC-3 prostate = test system: PC-3 prostate
UACC-257 melanoma = test system: UACC-257 melanoma
UO-31 renal = test system: UO-31 renal

Structure (SMILES) | TGI (DU-145 prostate) | TGI (EKVX NSCLC) | TGI (HCT-15 colon) | TGI (HOP-92 NSCLC) | TGI (M14 melanoma) | TGI (OVCAR-4 ovarian) | TGI (OVCAR-5 ovarian) | TGI (PC-3 prostate) | TGI (UACC-257 melanoma) | TGI (UO-31 renal) | GI50 (DU-145 prostate) | GI50 (EKVX NSCLC) | GI50 (HCT-15 colon) | GI50 (HOP-92 NSCLC) | GI50 (M14 melanoma) | GI50 (OVCAR-4 ovarian) | GI50 (OVCAR-5 ovarian) | GI50 (PC-3 prostate) | GI50 (UACC-257 melanoma) | GI50 (UO-31 renal)
C/C(=N\NS(=O)(=O)c1ccc(C)cc1)P(=O)(O)O | > 100 µM | > 100 µM | > 100 µM | > 100 µM | > 100 µM | > 100 µM | > 100 µM | > 100 µM | > 100 µM | > 100 µM | – | – | – | – | – | – | – | – | – | –
CCN(CC)CCCNCc1cc(-c2ccccc2)nc2ccccc12 | > 100 µM | > 100 µM | 45.8 µM | 9.41 µM | 14.4 µM | > 100 µM | > 100 µM | > 100 µM | 18.3 µM | 50.5 µM | 21.2 µM | 89.2 µM | 3.24 µM | 2.34 µM | 4.63 µM | 6.91 µM | 37.9 µM | 11.2 µM | 5.11 µM | 3.96 µM
CC(=O)c1c(C)[nH]c(-c2nc3ccc(N4CCN(C)CC4)cc3[nH]2)c1-c1ccc(N(C)C)cc1 | > 83.6 µM | > 100 µM | 14.1 µM | 2.53 µM | 13.4 µM | 33.6 µM | > 65 µM | 66.9 µM | 11 µM | 7.33 µM | 5.37 µM | 4.81 µM | 0.478 µM | 0.147 µM | 0.537 µM | 1.17 µM | 1.8 µM | 0.894 µM | 1.03 µM | 0.211 µM
Cc1nc2ccccc2c(/C=C/c2ccc(Cl)cc2)c1C(=O)/C=C/c1ccc(C(F)(F)F)cc1 | 2.53 µM | 2.31 µM | 0.599 µM | 2.47 µM | 1.88 µM | 2.61 µM | 2.84 µM | 2.18 µM | 2.93 µM | 0.807 µM | 1.03 µM | 0.865 µM | 0.179 µM | 1.07 µM | 0.41 µM | 1.26 µM | 0.821 µM | 0.537 µM | 1.06 µM | 0.238 µM
CC(C)=CCC/C(C)=C/CC/C(C)=C/CSc1ccccc1C(=O)O | 55.1 µM and 33.5 µM | > 84.9 µM and 45.1 µM | > 100 µM and 32 µM | 57.1 µM and 59.7 µM | > 95 µM and 40.6 µM | > 100 µM | 62.6 µM and 36.3 µM | > 59.3 µM and 34.1 µM | > 100 µM | 37.1 µM | 24.6 µM | 29.8 µM | 28.6 µM | 19.3 µM | 25.6 µM | 31.5 µM | 23.1 µM | 27 µM | 30.5 µM | 17.7 µM
COCc1cc(C(=O)Nc2cc([C@H]3CC[C@@H](OC(=O)NC(C)C)C3)[nH]n2)n(C)n1 | > 100 µM | 85.8 µM | > 100 µM | 36.6 µM | 40.5 µM | 77.2 µM | > 100 µM | 73.6 µM | > 100 µM | 58.6 µM | 5.13 µM | 19.1 µM | 22.8 µM | 8.03 µM | 12.2 µM | 4.89 µM | 7.99 µM | 10.3 µM | 25.9 µM | 16 µM
O=C(COc1cc(O)c2c(=O)cc(-c3ccccc3)oc2c1)Nc1ccccc1C(F)(F)F | > 100 µM | 62.4 µM | 21.1 µM | 6.71 µM | > 100 µM | 5.94 µM | > 100 µM | > 100 µM | > 100 µM | – | 7.97 µM | 9.37 µM | 3.28 µM | 2.13 µM | 27.6 µM | 2.45 µM | 7.18 µM | 5.75 µM | > 100 µM | –
Cc1cc(N2CCOCC2)nc(N[C@@H]2CCC[C@H](Nc3ccnc4cc(Cl)ccc34)C2)n1 | 14.7 µM | 13.2 µM | 3.54 µM | 3.08 µM | 3.7 µM | 10.8 µM | 11.2 µM | 6.01 µM | 3.89 µM | 2.63 µM | 3.82 µM | 2.86 µM | 1.4 µM | 1.44 µM | 2 µM | 2.8 µM | 3.1 µM | 2.38 µM | 2.14 µM | 1.29 µM
C/C1=C/C(=O)O[C@@H]2C[C@@H](CC[C@H](C)/C=C\C=C\CC1)O[C@@](O)([C@@H]1CSC(=O)N1)C2 | > 10 µM | > 5.52 µM | > 10 µM | 0.356 µM | 3.75 µM | > 10 µM | > 10 µM | > 10 µM | > 10 µM | 1.25 µM | – | – | – | – | – | – | – | – | – | –
